The record followed here is EP3696177A1, “HETEROCYCLIC COMPOUNDS FOR THE CONTROL OF INVERTEBRATE PESTS” (BASF SE, priority 2019, dated 2020).

The subject of one assay is dichromothrips corbetti. Kind of assay: Orchid thrips floral-immersion test. The class given is in vivo. Conditions: 72 h, read-out: mortality in comparison with untreated controls. The protocol:
Dichromothrips corbetti adults used for bioassay are obtained from a colony maintained continu-ously under laboratory conditions. For testing purposes, the test compound is diluted in a 1:1 mix-ture of acetone:water (vol:vol), plus Kinetic at a rate of 0.01% v/v.
Thrips potency of each compound is evaluated by using a floral-immersion technique. Each orchid petal is dipped into treatment solution and allowed to dry in Petri dishes. Treated petals are placed into individual re-sealable plastic along with about 20 adult thrips. All test arenas are held under dark condition and a temperature of about 28°C for duration of the assay. The percent mor-tality is recorded 72 hours after treatment.
As to `CN1C(=O)SC(NC(=O)c2ccc(C3=NOC(c4cc(Cl)c(F)c(Cl)c4)(C(F)(F)F)C3)c3c2CCC3)C1=O` (stereo not drawn) [Compound I-1-9], the mortality at 300 ppm is > 75%.

Turning to `CCN1C(=O)SC(NC(=O)c2ccc(C3=NCC(c4cc(Cl)c(F)c(Cl)c4)(C(F)(F)F)C3)c3c2CCC3)C1=O` (stereo not drawn) [Compound I-2-1], the mortality at 300 ppm is > 75%.

The next assay has as its system Plutella xylostella. The experiment in a line: Diamond back moth (Plutella xylostella) cabbage leaf disc dip test. The class given is in vivo. Conditions: foliar, 72 h, read-out: mortality in comparison with untreated controls. The procedure: The active compound is dissolved at the desired concentration in a mixture of 1:1 (vol:vol) distilled water: acetone. Surfactant (Kinetic) is added at a rate of 0.01% (vol/vol). The test solution is pre-pared at the day of use.
Cabbage leaf discs (60mm in diameter) are dipped in test solution and air-dried. Treated leaves are placed in petri dishes lined with moistened filter paper and inoculated with ten 3rd instar larvae. Mortality is recorded 72 hours after treatment. Feeding damage is also recorded using a scale of 0-100%.
For `CN1C(=O)SC(NC(=O)c2ccc(C3=NOC(c4cc(Cl)c(F)c(Cl)c4)(C(F)(F)F)C3)c3c2CCC3)C1=O` (stereo not drawn) [Compound I-1-9], the mortality at 300 ppm is > 75%.

For `CCN1C(=O)SC(NC(=O)c2ccc(C3=NCC(c4cc(Cl)c(F)c(Cl)c4)(C(F)(F)F)C3)c3c2CCC3)C1=O` (stereo not drawn) [Compound I-2-1], the mortality at 300 ppm was > 75%.

Another assay deals with Nephotettix virescens. The experiment in a line: Rice green leafhopper (Nephotettix virescens) spray test on rice seedlings. It counts as in vivo. Conditions: adults, after 72 hours, read-out: mortality in comparison with untreated controls. The procedure: Four to five-week old rice seedlings with cut upper leaf portion are cleaned and washed 24 hours before spraying. The active compounds are formulated in 1:1 acetone:water (vol:vol), and 0.01% vol/vol surfactant (Kinetic) is added. Potted rice seedlings are sprayed with 5-6 ml test solution, air dried, covered with Mylar cages and inoculated with 10 adults. Treated rice plants are kept at about 28-29°C and relative humidity of about 50-60%. Percent mortality is recorded after 72 hours.
As to `CN1C(=O)SC(NC(=O)c2ccc(C3=NOC(c4cc(Cl)c(F)c(Cl)c4)(C(F)(F)F)C3)c3c2CCC3)C1=O` (stereo not drawn) [Compound I-1-9], the mortality at 300 ppm was > 75%.

For `CCN1C(=O)SC(NC(=O)c2ccc(C3=NCC(c4cc(Cl)c(F)c(Cl)c4)(C(F)(F)F)C3)c3c2CCC3)C1=O` (stereo not drawn) [Compound I-2-1], the mortality at 300 ppm is > 75%.

In the next assay the test system is Nezara viridula. The experiment in a line: Green soldier stink bug (Nezara viridula) soybean pod spray test. It counts as in vivo. Particulars: 120 h, late 3rd instar N. viridula, after 5 days, read-out: mortality in comparison with untreated controls. The protocol:
The active compound is dissolved at the desired concentration in a mixture of 1:1 (vol:vol) distilled water: aceteone. Surfactant (Kinetic) is added at a rate of 0.01% (vol/vol).The test solution is prepared at the day of use.
Soybean pods are placed in 90 x 50 mm glass Petri dishes lined with moistened filter paper and inoculated with ten late 3rd instar N. viridula. Using a hand atomizer, an approximately 2 ml solution is sprayed into each Petri dish. Treated set-up is kept at about 25-26°C and relative humidity of about 65-70%. Percent mortality is recorded after 5 days.
On to `CN1C(=O)SC(NC(=O)c2ccc(C3=NOC(c4cc(Cl)c(F)c(Cl)c4)(C(F)(F)F)C3)c3c2CCC3)C1=O` (stereo not drawn) [Compound I-1-9], for which the mortality at 300 ppm is > 75%.

For the molecule `CCN1C(=O)SC(NC(=O)c2ccc(C3=NCC(c4cc(Cl)c(F)c(Cl)c4)(C(F)(F)F)C3)c3c2CCC3)C1=O` (stereo not drawn) [Compound I-2-1], the mortality at 300 ppm was > 75%.

In a further assay the test system is Megoura viciae. Kind of assay: Vetch aphid (Megoura viciae) broad bean leaf disk test. The class given is in vivo. Particulars: foliar, 120 h, read-out: mortality in comparison with untreated controls. The procedure:
For evaluating control of vetch aphid (Megoura viciae) through contact or systemic means the test unit consisted of 24-well-microtiter plates containing broad bean leaf disks.
The compounds were formulated using a solution containing 75% v/v water and 25% v/v DMSO. Different concentrations of formulated compounds were sprayed onto the leaf disks at 2.5 µl, us-ing a custom built micro atomizer, at two replications.
After application, the leaf disks were air-dried and 5 - 8 adult aphids placed on the leaf disks in-side the microtiter plate wells. The aphids were then allowed to suck on the treated leaf disks and incubated at about 23 + 1°C and about 50 + 5 % relative humidity for 5 days. Aphid mortality and fecundity was then visually assessed.
In the case of `CN1C(=O)SC(NC(=O)c2ccc(C3=NOC(c4cc(Cl)c(F)c(Cl)c4)(C(F)(F)F)C3)c3c2CCC3)C1=O` (stereo not drawn) [Compound I-1-9], the mortality at 2500 ppm was > 75%.

As to `CCN1C(=O)SC(NC(=O)c2ccc(C3=NCC(c4cc(Cl)c(F)c(Cl)c4)(C(F)(F)F)C3)c3c2CCC3)C1=O` (stereo not drawn) [Compound I-2-1], the mortality at 2500 ppm was > 75%.

For another assay, the system named is Myzus persicae. Kind of assay: Green peach aphid (Myzus persicae) artificial diet/membrane systemic test. It counts as in vivo. Conditions: 72 h, read-out: mortality in comparison with untreated controls. The source says: For evaluating control of green peach aphid (Myzus persicae) through systemic means the test unit consisted of 96-well-microtiter plates containing liquid artificial diet under an artificial membrane.
The compounds were formulated using a solution containing 75% v/v water and 25% v/v DMSO. Different concentrations of formulated compounds were pipetted into the aphid diet, using a cus-tom built pipetter, at two replications.
After application, 5 - 8 adult aphids were placed on the artificial membrane inside the microtiter plate wells. The aphids were then allowed to suck on the treated aphid diet and incubated at about 23 + 1°C and about 50 + 5 % relative humidity for 3 days. Aphid mortality and fecundity was then visually assessed.
Regarding `CN1C(=O)SC(NC(=O)c2ccc(C3=NOC(c4cc(Cl)c(F)c(Cl)c4)(C(F)(F)F)C3)c3c2CCC3)C1=O` (stereo not drawn) [Compound I-1-9], the mortality at 2500 ppm was > 75%.

Regarding `CCN1C(=O)SC(NC(=O)c2ccc(C3=NCC(c4cc(Cl)c(F)c(Cl)c4)(C(F)(F)F)C3)c3c2CCC3)C1=O` (stereo not drawn) [Compound I-2-1], the mortality at 2500 ppm was > 75%.

Another assay has as its system Anthonomus grandis. The experiment in a line: Boll weevil (Anthonomus grandis) insect diet microtiter plate test. It counts as in vivo. Particulars: 120 h, read-out: mortality in comparison with untreated controls (egg and larval mortality). The procedure: For evaluating control of boll weevil (Anthonomus grandis) the test unit consisted of 96-well-microtiter plates containing an insect diet and 5-10 A. grandis eggs.
The compounds were formulated using a solution containing 75% v/v water and 25% v/v DMSO. Different concentrations of formulated compounds were sprayed onto the insect diet at 5 µl, using a custom built micro atomizer, at two replications.
After application, microtiter plates were incubated at about 25 + 1°C and about 75 + 5 % relative humidity for 5 days. Egg and larval mortality was then visually assessed.
Consider `CN1C(=O)SC(NC(=O)c2ccc(C3=NOC(c4cc(Cl)c(F)c(Cl)c4)(C(F)(F)F)C3)c3c2CCC3)C1=O` (stereo not drawn) [Compound I-1-9], for which the mortality at 2500 ppm was > 75%.

Turning to `CCN1C(=O)SC(NC(=O)c2ccc(C3=NCC(c4cc(Cl)c(F)c(Cl)c4)(C(F)(F)F)C3)c3c2CCC3)C1=O` (stereo not drawn) [Compound I-2-1], the mortality at 2500 ppm was > 75%.

Another assay has as its system Tetranychus kanzawai. The experiment in a line: Red spider mite (Tetranychus kanzawai) spray test on cowpea beans. Particulars: topical, 72 h, read-out: mortality in comparison with untreated controls. The class given is in vivo. The protocol:
The active compound is dissolved at the desired concentration in a mixture of 1:1 (vol:vol) distilled water: acetone. Add surfactant (Kinetic) is added at a rate of 0.01% (vol/vol). The test solution is prepared at the day of use.
Potted cowpea beans of 4-5 days of age are cleaned with tap water and sprayed with 1-2 ml of the test solution using air driven DeVilbiss® hand atomizer at 20- 30 psi (≈ 1,38 to 2,07 bar). The treated plants are allowed to air dry and afterwards inoculated with 30 or more mites by clipping a cassava leaf section from rearing population. Treated plants are placed inside a holding room at about 25-26°C and about 65-70% relative humidity. Estimate percent mortality is assessed 72 hours after treatment.
Take `CN1C(=O)SC(NC(=O)c2ccc(C3=NOC(c4cc(Cl)c(F)c(Cl)c4)(C(F)(F)F)C3)c3c2CCC3)C1=O` (stereo not drawn) [Compound I-1-9]: the mortality at 300 ppm was > 75%.

Take `CCN1C(=O)SC(NC(=O)c2ccc(C3=NCC(c4cc(Cl)c(F)c(Cl)c4)(C(F)(F)F)C3)c3c2CCC3)C1=O` (stereo not drawn) [Compound I-2-1]: the mortality at 300 ppm was > 75%.

For the next assay, the system named is Heliothis virescens. Kind of assay: Tobacco budworm (Heliothis virescens) insect diet microtiter plate test. The class given is in vivo. Conditions: 120 h, read-out: mortality in comparison with untreated controls (egg and larval mortality). The procedure:
For evaluating control of tobacco budworm (Heliothis virescens) the test unit consisted of 96-well-microtiter plates containing an insect diet and 15-25 H. virescens eggs.
The compounds were formulated using a solution containing 75% v/v water and 25% v/v DMSO. Different concentrations of formulated compounds were sprayed onto the insect diet at 10 µl, us-ing a custom built micro atomizer, at two replications.
After application, microtiter plates were incubated at about 28 + 1°C and about 80 + 5 % relative humidity for 5 days. Egg and larval mortality was then visually assessed.
On to `CN1C(=O)SC(NC(=O)c2ccc(C3=NOC(c4cc(Cl)c(F)c(Cl)c4)(C(F)(F)F)C3)c3c2CCC3)C1=O` (stereo not drawn) [Compound I-1-9], for which the mortality at 2500 ppm is > 75%.

Turning to `CCN1C(=O)SC(NC(=O)c2ccc(C3=NCC(c4cc(Cl)c(F)c(Cl)c4)(C(F)(F)F)C3)c3c2CCC3)C1=O` (stereo not drawn) [Compound I-2-1], the mortality at 2500 ppm is > 75%.

The next assay has as its system Aedes aegypti. Kind of assay: whole plant or invertebrate. The class given is in vivo. Conditions: 48 h, A. aegypti larvae, incubated 2 days, read-out: mortality in comparison with untreated controls (larval mortality). The procedure: For evaluating control of yellow fever mosquito (Aedes aegypti) the test unit consisted of 96-well-microtiter plates containing 200µl of tap water per well and 5-15 freshly hatched A. aegypti larvae.
The active compounds were formulated using a solution containing 75% (v/v) water and 25% (v/v) DMSO. Different concentrations of formulated compounds or mixtures were sprayed onto the insect diet at 2.5µl, using a custom built micro atomizer, at two replications.
After application, microtiter plates were incubated at 28 + 1°C, 80 + 5 % RH for 2 days. Larval mortality was then visually assessed.
Take `CN1C(=O)SC(NC(=O)c2ccc(C3=NOC(c4cc(Cl)c(F)c(Cl)c4)(C(F)(F)F)C3)c3c2CCC3)C1=O` (stereo not drawn) [Compound I-1-9]: the mortality at 2500 ppm is > 75%.

On to `CCN1C(=O)SC(NC(=O)c2ccc(C3=NCC(c4cc(Cl)c(F)c(Cl)c4)(C(F)(F)F)C3)c3c2CCC3)C1=O` (stereo not drawn) [Compound I-2-1], for which the mortality at 2500 ppm is > 75%.

In a further assay the test system is Caenorhabditis elegans. Kind of assay: Caenorhabditis elegans liquid diet microtiter plate test. The class given is in vivo. Particulars: 96 h, read-out: mortality in comparison with untreated controls (nematode motility (mortality)). The protocol: For evaluating control of Caenorhabditis elegans through contact or systemic means the test unit consisted of 96-well-microtiter plates containing a liquid diet.
The compounds or mixtures were formulated using a solution containing 75% water and 25% DMSO. Different concentrations of formulated compounds were sprayed into the microtiter plate wells at 5µl per well, using a custom built micro atomizer, at two replications. Mixed instar 60-100 C. elegans were transferred into the micro-titer plate wells. After application, the nematodes were incubated at 18 + 1°C, 70 + 5 % RH for 4 days. Nematode motility (mortality) was then visually assessed.
Turning to `CN1C(=O)SC(NC(=O)c2ccc(C3=NOC(c4cc(Cl)c(F)c(Cl)c4)(C(F)(F)F)C3)c3c2CCC3)C1=O` (stereo not drawn) [Compound I-1-9], the mortality at 2500 ppm is > 75%.

For the molecule `CCN1C(=O)SC(NC(=O)c2ccc(C3=NCC(c4cc(Cl)c(F)c(Cl)c4)(C(F)(F)F)C3)c3c2CCC3)C1=O` (stereo not drawn) [Compound I-2-1], the mortality at 2500 ppm is > 75%.

Another assay deals with Aphis craccivora. Kind of assay: Cowpea aphid (Aphis craccivora) spray test on potted cowpea plants. The class given is in vivo. Particulars: aphids of various stages, after 72 hours, read-out: mortality in comparison with untreated controls. The protocol:
The active compound is dissolved at the desired concentration in a mixture of 1:1 (vol: vol) distilled water: acetone. Surfactant (Kinetic) is added at a rate of 0.01% (vol/vol). The test solution is prepared at the day of use.
Potted cowpea plants are colonized with approximately 30 - 50 aphids of various stages by man-ually transferring aphid-infested leaf clippings 24 hours before application. Plants are sprayed with the test solutions using a DeVilbiss® hand atomizer at 20- 30 psi (≈ 1.38 to 2.07 bar) after the pest population has been checked. Treated plants are maintained on light carts at about 25- 26°C. Estimate percent mortality is assessed after 72 hours.
With `CN1C(=O)SC(NC(=O)c2ccc(C3=NOC(c4cc(Cl)c(F)c(Cl)c4)(C(F)(F)F)C3)c3c2CCC3)C1=O` (stereo not drawn) [Compound I-1-9], the mortality at 300 ppm is > 75%.

Consider `CCN1C(=O)SC(NC(=O)c2ccc(C3=NCC(c4cc(Cl)c(F)c(Cl)c4)(C(F)(F)F)C3)c3c2CCC3)C1=O` (stereo not drawn) [Compound I-2-1], for which the mortality at 300 ppm was > 75%.
